Test [1] addresses T1, estrogen receptor alpha (ERalpha) (Homo sapiens, UniProt P03372).
T1 construct: purchased Wako Chemicals (Osaka, Japan)
T1 sequence (P03372 1-595): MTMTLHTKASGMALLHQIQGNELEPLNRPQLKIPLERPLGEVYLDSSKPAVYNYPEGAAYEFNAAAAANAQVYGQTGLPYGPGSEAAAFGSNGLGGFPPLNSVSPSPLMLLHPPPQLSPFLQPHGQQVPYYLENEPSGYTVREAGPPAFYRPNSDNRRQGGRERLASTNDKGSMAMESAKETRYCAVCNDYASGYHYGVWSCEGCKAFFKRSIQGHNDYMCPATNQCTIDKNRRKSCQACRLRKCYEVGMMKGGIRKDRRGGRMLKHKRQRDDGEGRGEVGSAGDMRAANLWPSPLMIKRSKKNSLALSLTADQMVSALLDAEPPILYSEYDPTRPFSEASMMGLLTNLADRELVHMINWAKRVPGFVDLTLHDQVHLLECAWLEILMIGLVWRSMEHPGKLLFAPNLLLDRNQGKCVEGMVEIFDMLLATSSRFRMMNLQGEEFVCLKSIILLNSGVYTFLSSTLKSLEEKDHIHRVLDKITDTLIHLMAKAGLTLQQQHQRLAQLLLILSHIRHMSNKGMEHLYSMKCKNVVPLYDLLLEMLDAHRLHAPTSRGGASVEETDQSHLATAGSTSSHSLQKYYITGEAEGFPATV
Description: Estrogen-R (α) competitor screening kit, ligand binding screen. To be noted: for IC50: ER alpha competitor binding, non-linear regression, one site competition; for RBA (Relative binding affinity): IC50 of estradiol divided by IC50 of the tested compound, multiplied by 100, Estradiol = 100; for % Binding to ERα: mean ± S.E.M., n = 4. The protocol: An estrogen-R (α) competitor screening kit was purchased from Wako Chemicals (Osaka, Japan). The assay depends on the competition between the samples applied in different concentrations and the labeled estrogen mixture. The amount of the ligand that binds to the ERalpha coated on the microplate well is determined by the dynamic equilibrium among all the ligand concentrations in the mixture, the difference of their binding affinities to the receptor, and the incubation time. Therefore, the reduction in fluorescence intensities from the labeled estrogen retained is an indication of the affinity of the added compounds to the estrogen receptor. (−)-Arctigenin (8) and its metabolites were tested in 10^−5, 10^−4, 5 × 10^−4, and 5 × 10^−3 M concentrations. […] The results were calculated as percentages of the negative control.
Each set of experiments was repeated at least three times. Values are expressed as mean ± S.E.M. One-way analysis of variance followed by Dunnett’s test was used for statistical analysis. The IC50 was calculated using a non-linear regression analysis (for one site competition).

Test [2] concerns MCF-7 human breast cancer cells. Also noted: method as in earlier work. Particulars: estradiol-mediated proliferative characteristics; ref 10 (Xie et al.); cited from earlier work.
The mark [3] stands for this setting: compound at 5 × 10^−3 M, percentage of the negative control.
Where [4] appears, read: compound at 5 × 10^−4 M, percentage of the negative control.
Setting [5] is: compound at 10^−4 M, percentage of the negative control.
[6] abbreviates: compound at 10^−5 M, percentage of the negative control (labeled estrogen mixture).

By IC50 is commonly meant the concentration needed to halve the response being measured. Low values mean greater potency, high ones weaker potency. In the case of `O=C1OC[C@H](Cc2ccc(O)c(O)c2)[C@H]1Cc1ccc(O)c(O)c1` [Compound 1, (−)-dihydroxyenterolactone], the IC50 in test [1] stood at 1600 µM. For the same molecule, the “RBA (Relative binding affinity)” value in test [1] is 1.2 × 10^−3. The “% Binding to ERα” value was found to be 65.3 ± 0.2 % in test [1] (setting [3]), 34.8 ± 1.3 % in test [1] (setting [4]), 13.7 ± 0.7 % in test [1] (setting [5]) and 5.6 ± 3.3 % in test [1] (setting [6]).
For `COc1cc(C[C@H]2C(=O)OC[C@@H]2Cc2ccc(O)c(O)c2)ccc1O` [Compound 2, (2R,3R)-2-(4-hydroxy-3-methoxybenzyl)-3-(3,4-dihydroxybenzyl)-butyrolactone], in test [1], the IC50 stood at 790 µM. Moreover, in test [1], the “RBA (Relative binding affinity)” value is listed as 2.5 × 10^−3. Besides, the “% Binding to ERα” value in test [1] (setting [3]) was found to be 67.7 ± 0.2 %; in test [1] (setting [4]), 44.4 ± 0.9 %; in test [1] (setting [5]) it was 13.5 ± 2.0 %; in test [1] (setting [6]), 1.4 ± 1.2%.
In turn, `COc1cc(C[C@H]2COC(=O)[C@@H]2Cc2ccc(O)c(O)c2)ccc1O` [Compound 3] returned an IC50 in test [1] of 1900 µM. The “RBA (Relative binding affinity)” value in test [1] was 1.0 × 10^−3. Further, the “% Binding to ERα” value in test [1] (setting [3]) stood at 67.5 ± 0.2 %; in test [1] (setting [4]), 25.8 ± 0.8 %; in test [1] (setting [5]) it was 14.1 ± 1.3 %; in test [1] (setting [6]), 2.2 ± 1.6%.
On to `COc1ccc(C[C@H]2COC(=O)[C@@H]2Cc2ccc(O)c(O)c2)cc1O` [Compound 4], for which the IC50 in test [1] was found to be 2500 µM. The “RBA (Relative binding affinity)” value in test [1] is recorded as 7.9 × 10^−4. The “% Binding to ERα” value is reported as 63.2 ± 0.3 % in test [1] (setting [3]), 19.6 ± 2.3 % in test [1] (setting [4]), −0.5 ± 0.7% in test [1] (setting [5]) and 1.0 ± 1.4% in test [1] (setting [6]).
The molecule `COc1cc(C[C@H]2COC(=O)[C@@H]2Cc2ccc(O)c(OC)c2)ccc1O` [Compound 5, (−)-matairesinol] showed an IC50 in test [1] above 5000 µM. Besides, the “% Binding to ERα” value in test [1] (setting [3]) is on record as 17.6 ± 1.1 %; in test [1] (setting [4]), 0.1 ± 2.6%; in test [1] (setting [5]), 18.1 ± 9.0 %; in test [1] (setting [6]), 0.4 ± 0.9%.
Regarding `COc1ccc(C[C@H]2COC(=O)[C@@H]2Cc2ccc(O)c(O)c2)cc1OC` [Compound 6], the “proliferation of MCF-7 human breast cancer cells” value in test [2] is “stimulated the proliferation”. The molecule also yielded an IC50 in test [1] of 2500 µM. The “RBA (Relative binding affinity)” value in test [1] is 7.9 × 10^−4. Moreover, the “% Binding to ERα” value in test [1] (setting [3]) is listed as 64.5 ± 0.2 %; in test [1] (setting [4]), 16.6 ± 0.9 %; in test [1] (setting [5]), 1.4 ± 2.4%; in test [1] (setting [6]) it was −2.3 ± 0.9%.
`COc1ccc(C[C@H]2COC(=O)[C@@H]2Cc2ccc(O)c(OC)c2)cc1O` [Compound 7] came in with an IC50 in test [1] above 5000 µM. Moreover, the “% Binding to ERα” value is given as 30.1 ± 1.7 % in test [1] (setting [3]), −4.2 ± 0.8% in test [1] (setting [4]), 1.2 ± 1.7% in test [1] (setting [5]) and 3.6 ± 0.6% in test [1] (setting [6]).
The matching figures for `COc1cc(C[C@H]2C(=O)OC[C@@H]2Cc2ccc(OC)c(OC)c2)ccc1O` [Compound 8, (−)-arctigenin]: above 5000 µM, 19.4 ± 1.5 %, −4.1 ± 3.5%, −4.3 ± 0.8% and −1.4 ± 0.8%.

Values taken from article PMC6269892, “Ligand Binding Affinities of Arctigenin and Its Demethylated Metabolites to Estrogen Receptor Alpha” (Molecules, 2013).
